SMILES strings stand for the structures. “Also recorded” adds a separate entry of the source.

The values below come from patent publication US20130041005A1, “PHARMACEUTICAL COMPOSITIONS COMPRISING NEUROPILIN INHIBITORS, AND THEIR USE FOR THE PREVENTION AND/OR TREATMENT OF ANGIOGENIC DISORDERS AND CANCERS” (TRAGEX PHARMA, priority 2011, published 2013).

The test system of one assay is PC-3. The assay is described as follows: WST-1 proliferation assay, PC-3. The format is cell-based. The conditions noted are these: Homo sapiens; for inhibition at 0.1 µM: PC-3, 0.1 μM; for inhibition at 0.5 µM: PC-3, 0.5 μM; for inhibition at 1 µM: PC-3, 1 μM; for IC50: Prostate PC-3, 72 h, read-out: Anti-proliferative activity IC50 (μM) ± SD. The source says: (§1) Several cancer cell lines were used: breast cancer cells (MDA-MB-231 (ATTCC® Number HTB-26™), MDA-MB-436 (ATTCC® Number HTB-130™), MDA-MB-438, BT-474 (ATTCC® Number HTB-20™)); cervical cancer cells (HeLa (ATTCC® Number CCL-2™)); colon cancer cells (HCT-116 (ATTCC® Number CCL-247™) and HT-29 (ATTCC® Number HTB-38™)); osteosarcoma cells (U2OS (ATTCC® Number HTB-96™)); pancreas cancer cells (MIA PaCa-2 (ATTCC® Number CRL-1420™) and Panc-10.5 (ATTCC® Number CRL-2547™)); prostate cancer cells (PC-3 (ATTCC® Number CRL-1435™) and LNCaP (ATTCC® Number CRL-1740™)); brain cancer cells (U87 glioblastoma (ATTCC® Number HTB-14™) and SH-SYSY neuroblastoma (ATTCC® Number CRL-2266™)).
All the cancer cell lines were maintained in cultured in DMEM GlutaMAX™ (GIBCO Invitrogen, France, cat no 31966047) enhanced with 10% foetal bovine serum (GIBCO Invitrogen, France, cat no 10270-106) and 1% penicillin G/streptomycin (GIBCO Invitrogen, France, cat no 15140-122). Only Panc-10.5 cells were cultivated in RPMI 1640 medium (Gibco) supplemented with 2 mM L-glutamine, 1.5 g/L sodium bicarbonate, 4.5 g/L glucose, 10 mM HEPES, 1 mM sodium pyruvate, 10 Units/ml human insulin, […] (SVF): 15% (75 ml in 500 ml of medium).
Cells were grown as subconfluent monolayer and cultured in 75 cm^2 flasks at 37° C., 5% CO2 in a humidified atmosphere, and medium was changed every two days. Only cells from passages 2-6 were used for the experiments.
After observation of cells under the microscope, old media were removed and the adherent cells washed gently twice with PBS (Phosphate Buffer Saline, —Ca^2+, —Mg^2+, Lonza cat no: 17-512F/12). All cells were detached with 3 ml of trypsin/EDTA (chelator of calcium and magnesium ions) (Lonza), incubated for 5 min at 37° C., and examined using a microscope to ensure that the cells were detached and floating. Then, 3 ml TNS (Trypsin Neutralizing Solution, Lonza, France, cat no CC-5002) or of culture medium were added to inactivate the trypsin, and the cell suspension was transferred in a falcon and centrifuged for 7 min at 1400 rpm. The supernatant was removed and the cell pellet resuspended in […] of culture medium. 50 μl of this solution were transferred in 20 μl of isotonic solution and the cells were counted by count cellular (Beckman Coulter). At day 0, 200 μl of cellular suspension (3.10^3 cells/well for the HUVEC cells, breast cancer cells (MDA-MB-231 1.10^4 cells/well, MDA-MB-436 1.10^4 cells/well, MDA-MB-438 2.10^4 cells/well, BT-474 2.5.10^4 cells/well); cervical cancer cells (HeLa 5.000 cells/well); colon cancer cells (HCT-116 5.10^3 cells/well, HCT-29 1.1.10^4 cells/well); osteosarcoma cells (U2OS 8.10^3 cells/well); pancreas cancer cells (MIA PaCa-2 5.10^3 cells/well, Panc-10.5 1.5.10^4 cells/well); prostate cancer cells (PC-3 4.10^3 cells/well, LNCaP 2.10^4 cells/well); brain cancer cells (U87 5.10^3 cells/well, SH-SYSY 8.10^4 cells/well)) were then plated on 96 well plates and incubated at 37° C. in a humidified atmosphere of 5% CO2 for 24 h.
At day 1, the compounds 1 or 2 of the invention were added at increasing concentrations (0.1-10 μM) in the wells and plates were incubated at 37° C. in a humidified atmosphere of 5% CO2 for 72 h.
The cell proliferation WST-1 assay is a colorimetric assay for the quantification of cell proliferation and viability, based on the enzymatic cleavage of the tetrazolium salt WST-1 added to the culture medium, to a water soluble colored formazan dye, detected by absorbance at 450 nm, by mitochondrial succinate-tetrazolium reductase in viable cells. An augmentation in enzyme activity will then lead to an increase in the amount of formazan dye formed, which directly correlates to the number of metabolically active cells in the culture.
After an incubation period of 72 h, at day 4, were prepared the 19 ml medium with reagent WST-1 1 ml ([…]). The medium was removed from the 96 microplate and 200 μl of solution WST-1/medium were added for each well. […]

The test system of assay [1] is breast cancer cells (MDA-MB-231). In words: Apoptosis assay (Annexin V-FITC/PI), MDA-MB-231. Type of assay: cell-based, Human. The note with it: IC50 concentration, 72 h (FIG. 5B). As to the method:
The level of apoptosis in endothelial (HUVEC) and breast cancer cells (MDA-MB-231) was detected by Annexin V-FITC Apoptosis Detection Kit (ref 556547, BD Biosciences, France) according to the manufacturer's instructions. Briefly, HUVEC and MDA-MB-231 cells were treated separately with DMSO (control) and the compounds of the invention at the concentration corresponding to the IC50, obtained by the proliferation assay, for 72 h. After treatment, all cell including both detached and attached cells were collected, centrifugated at 14000 rpm for 5 min and the apoptotic cells were detected by staining with Annexin V-FITC and (propidium iodide) PI. The cells were resuspended in 100 μl Annexin V binding buffer (10 mM Hepes/NaOH, pH 7.4, 140 mM NaCl, […]) containing 5 μl of Annexin V-FITC and 5 μl of PI (propidium iodide). Samples were gently mixed and incubated for 2 h on ice and in the dark. Viable and apoptotic cell were detected by flow citometry (FACS Calibur Becton Dickinson, France). Apoptotic cells include both the early apoptotic portion (Annexin V-positive) and the late apoptotic portion (Annexin V- and PI-positive). Staurosporine is used as a positive control of apoptosis induction.

The subject of a further assay is HUVEC. The assay is described as follows: Tube maintenance assay. The format is cell-based. The note with it: VEGF-A165-treated HUVEC in collagen, 24 h treatment (FIG. 3C). As to the method: A 96-well plate was coated with 70 μl of collagen/media solution (NaOH 0.1N, 48 μL 10× Na2HCO3 and 0.5 mL EBM2) and allowed to solidify at 37° C. for 3 min. HUVEC were seeded at a density of 8×10^5 cells for well in 100 μl complete culture medium. After confluent monolayer formation, a second collagen gel layer with EBM2 supplemented with 50 ng/ml of VEGF-A165 was added over cells and plates were incubated for 24 h at 37° C. and 5% CO2 to allow tube formation.

In another assay the test system is BT-474. In words: WST-1 proliferation assay, BT-474. The format is cell-based. The note with it: Homo sapiens; Breast BT-474, 72 h; read-out: Anti-proliferative activity IC50 (μM) ± SD.
Description: as §1, with “CRL-2266™)). […]” for “CRL-2266™)).”
After observation of cells under the microscope, old media were removed and the adherent cells washed gently twice with PBS (Phosphate Buffer Saline, —Ca^2+, —Mg^2+, Lonza cat no: 17-512F/12). […] 50 μl of this solution were transferred in 20 μl of isotonic solution and the cells were counted by count cellular (Beckman Coulter). […]
The cell proliferation WST-1 assay is a colorimetric assay for the quantification of cell proliferation and viability, based on the enzymatic cleavage of the tetrazolium salt WST-1 added to the culture medium, to a water soluble colored formazan dye, detected by absorbance at 450 nm, by mitochondrial succinate-tetrazolium reductase in viable cells. […]
On the technique in general: Formazan colour is commonly taken as a measure of viable cells.

What is called inhibition is the percentage by which the read-out fell short of the control. Read a low inhibition as a response near the control. The term IC50 denotes the concentration that gives 50% inhibition. For the compound `Cc1ccc(-c2nc3ccccc3[nH]2)cc1NC(=S)NC(=O)c1ccc2c(c1)OCCO2` [Compound 1, N-[5-(1H-benzimidazol-2-yl)-2-methylphenyl]-N′-(2,3-dihydro-1,4-benzodioxin-6-ylcarbonyl)thiourea], in the assay on PC-3, at 0.1 µM the inhibition was 3%, at 0.5 µM the inhibition was 25%, 1 µM produced 47% inhibition and the IC50 worked out at 1.7 ± 0.04 µM. Further, the “induction of apoptosis in cancer cells” value in assay [1] was “induced the apoptosis; also recorded: induction of apoptosis”. Besides, the “maintenance of new blood vessels (tube maintenance)” value in the assay with HUVEC is “effectively inhibited”. Further, the IC50 in the assay on BT-474 was 2 µM.
For `O=C(NC(=S)Nc1cccc(-c2nc3ccccc3[nH]2)c1)c1ccc2c(c1)OCCO2` [Compound 2, N-[3-(1H-benzimidazol-2-yl)phenyl]-N′-(2,3-dihydro-1,4-benzodioxin-6-ylcarbonyl)thiourea], in the assay with PC-3, testing at 0.1 µM gave an inhibition of 29%, at 0.5 µM the inhibition was 46%, 1 µM produced 46% inhibition and the IC50 came to 1.5 ± 0.12 µM. The “induction of apoptosis in cancer cells” value in assay [1] is reported as “induced the apoptosis; also recorded: induction of apoptosis”. In addition, in the assay on HUVEC, the “maintenance of new blood vessels (tube maintenance)” value was “effectively inhibited”. Moreover, the IC50 in the assay with BT-474 amounted to 1.6 ± 0.06 µM.
